The source made the active and inactive calls. The rule behind the calls is not given here.
Experiments:
[1] = biological target: Transient receptor potential cation channel subfamily M member 7 (Mus musculus, UniProt Q923J1); experiment: Inhibition of N-terminal Flag-tagged mouse TRPM7 expressed in HEK293T cells assessed as reduction in whole cell currents by whole-cell patch clamp assay; type: cell-based, HEK-293T
HeLa = experiment: Antiproliferative activity against human HeLa cells assessed as inhibition of cell proliferation at 10 uM incubated for 72 hrs by Cell-titer-Glo cell viability assay; type: functional
MCF7 = experiment: Antiproliferative activity against human MCF7 cells assessed as inhibition of cell proliferation at 10 uM incubated for 72 hrs by Cell-titer-Glo cell viability assay; type: functional; conditions: MCF7, 72 h
[2] = Antiproliferative activity against human MCF10A cells assessed as inhibition of cell proliferation at 10 uM incubated for 72 hrs by Cell-titer-Glo cell viability assay; type: cell-based, MCF-10A
[3] = Antiproliferative activity against mouse NIH/3T3 cells assessed as inhibition of cell proliferation at 10 uM incubated for 72 hrs by Cell-titer-Glo cell viability assay; type: cell-based, NIH3T3
[4] = Antiproliferative activity against mouse B16F10 cells assessed as inhibition of cell proliferation at 10 uM incubated for 72 hrs by Cell-titer-Glo cell viability assay; type: functional; conditions: B16-F10, 72 h
Y79 = experiment: Antiproliferative activity against human Y79 cells assessed as inhibition of cell proliferation at 10 uM incubated for 72 hrs by Cell-titer-Glo cell viability assay; type: functional; conditions: Y79, 72 h
[5] = Antiproliferative activity against human DMS53 cells assessed as inhibition of cell proliferation at 10 uM incubated for 72 hrs by Cell-titer-Glo cell viability assay; type: functional; conditions: DMS-53, 72 h
[6] = Antiproliferative activity against human WI38 cells assessed as inhibition of cell proliferation at 10 uM incubated for 72 hrs by Cell-titer-Glo cell viability assay; type: cell-based, WI-38
[7] = Selectivity index, ratio of antiproliferative activity against human WI38 cells to antiproliferative activity against human HeLa cells
[8] = Selectivity index, ratio of antiproliferative activity against human WI38 cells to antiproliferative activity against human MCF7 cells
[9] = Selectivity index, ratio of antiproliferative activity against human WI38 cells to antiproliferative activity against mouse B16F10 cells; design: species or system B16-F10
[10] = Selectivity index, ratio of antiproliferative activity against human WI38 cells to antiproliferative activity against human Y79 cells; design: species or system WI-38
[11] = Selectivity index, ratio of antiproliferative activity against human WI38 cells to antiproliferative activity against human DMS53 cells; design: species or system DMS-53
[12] = Selectivity index, ratio of antiproliferative activity against human MCF10A cells to antiproliferative activity against human HeLa cells
[13] = Selectivity index, ratio of antiproliferative activity against human MCF10A cells to antiproliferative activity against human MCF7 cells; design: species or system MCF-10A
[14] = Selectivity index, ratio of antiproliferative activity against human MCF10A cells to antiproliferative activity against mouse B16F10 cells; design: species or system MCF-10A
[15] = Selectivity index, ratio of antiproliferative activity against human MCF10A cells to antiproliferative activity against human Y79 cells; design: species or system MCF-10A
[16] = Selectivity index, ratio of antiproliferative activity against human MCF10A cells to antiproliferative activity against human DMS53 cells; design: species or system MCF-10A
[17] = Selectivity index, ratio of antiproliferative activity against mouse NIH/3T3 cells to antiproliferative activity against human HeLa cells
[18] = Selectivity index, ratio of antiproliferative activity against mouse NIH/3T3 cells to antiproliferative activity against human MCF7 cells
[19] = Selectivity index, ratio of antiproliferative activity against mouse NIH/3T3 cells to antiproliferative activity against mouse B16F10 cells; design: species or system B16-F10
[20] = Selectivity index, ratio of antiproliferative activity against mouse NIH/3T3 cells to antiproliferative activity against human Y79 cells
[21] = Selectivity index, ratio of antiproliferative activity against mouse NIH/3T3 cells to antiproliferative activity against human DMS53 cells; design: species or system DMS-53
[22] = Antiproliferative activity against human WERI cells assessed as inhibition of cell proliferation at 10 uM by propidium iodide uptake based fluoroskan microplate reader analysis; type: functional
[23] = Antiproliferative activity against human WERI cells assessed as inhibition of cell proliferation at 5 uM by propidium iodide uptake based fluoroskan microplate reader analysis; type: functional
[24] = Antiproliferative activity against human WERI cells assessed as inhibition of cell proliferation by measuring normalized ratio of propidium iodide uptake at 5 uM by propidium iodide uptake based fluoroskan microplate reader analysis; type: functional
[25] = Antiproliferative activity against human WERI cells assessed as inhibition of cell proliferation by measuring normalized ratio of propidium iodide uptake at 10 uM by propidium iodide uptake based fluoroskan microplate reader analysis; type: functional
[26] = Antiproliferative activity against human WERI cells assessed as inhibition of cell proliferation by propidium iodide uptake based fluoroskan microplate reader analysis; type: functional
Cerebral cortex neuron = experiment: Neuroprotection in CD1 mouse primary cortical neuron assessed as reduction in stretch injury-induced cell death at 2 to 10 uM dosed 1 hr after injury by propidium iodide straining based; type: functional
Rattus norvegicus [27] = experiment: Neuroprotection in Sprague-Dawley rat model of fluid percussion injury assessed as reduction in neuronal brain damage dosed before injury at 2 to 10 uM by TTC staining based oscilloscopy; type: functional, organism-based
Rattus norvegicus [28] = organism: Rattus norvegicus; experiment: Neuroprotection in Sprague-Dawley rat model of fluid percussion injury assessed as increase in balance by measuring mean latency measured on first day post injury by rotarod performance test relative to untreated control; type: functional
Rattus norvegicus [29] = experiment: Neuroprotection in Sprague-Dawley rat model of fluid percussion injury assessed as improvement in learning and memory tasks by measuring latency to reach platform dosed 1 hr after lateral fluid percussion injury by Morris water maze test; type: functional, organism-based
Rattus norvegicus [30] = experiment: Neuroprotection in Sprague-Dawley rat model of fluid percussion injury assessed as reduction in neuronal damage dosed 1 hr after injury by TTC staining based oscilloscopy; type: functional, organism-based
Rattus norvegicus [31] = organism: Rattus norvegicus; experiment: Neuroprotection in Sprague-Dawley rat model of fluid percussion injury assessed as distance traveled by rotarod performance test relative to untreated control; type: functional, organism-based
Rattus norvegicus [32] = organism: Rattus norvegicus; experiment: Neuroprotection in Sprague-Dawley rat model of fluid percussion injury assessed as activity parameters by rotarod performance test relative to untreated control; type: functional, organism-based

Sequence of Transient receptor potential cation channel subfamily M member 7 (Q923J1 whole entry): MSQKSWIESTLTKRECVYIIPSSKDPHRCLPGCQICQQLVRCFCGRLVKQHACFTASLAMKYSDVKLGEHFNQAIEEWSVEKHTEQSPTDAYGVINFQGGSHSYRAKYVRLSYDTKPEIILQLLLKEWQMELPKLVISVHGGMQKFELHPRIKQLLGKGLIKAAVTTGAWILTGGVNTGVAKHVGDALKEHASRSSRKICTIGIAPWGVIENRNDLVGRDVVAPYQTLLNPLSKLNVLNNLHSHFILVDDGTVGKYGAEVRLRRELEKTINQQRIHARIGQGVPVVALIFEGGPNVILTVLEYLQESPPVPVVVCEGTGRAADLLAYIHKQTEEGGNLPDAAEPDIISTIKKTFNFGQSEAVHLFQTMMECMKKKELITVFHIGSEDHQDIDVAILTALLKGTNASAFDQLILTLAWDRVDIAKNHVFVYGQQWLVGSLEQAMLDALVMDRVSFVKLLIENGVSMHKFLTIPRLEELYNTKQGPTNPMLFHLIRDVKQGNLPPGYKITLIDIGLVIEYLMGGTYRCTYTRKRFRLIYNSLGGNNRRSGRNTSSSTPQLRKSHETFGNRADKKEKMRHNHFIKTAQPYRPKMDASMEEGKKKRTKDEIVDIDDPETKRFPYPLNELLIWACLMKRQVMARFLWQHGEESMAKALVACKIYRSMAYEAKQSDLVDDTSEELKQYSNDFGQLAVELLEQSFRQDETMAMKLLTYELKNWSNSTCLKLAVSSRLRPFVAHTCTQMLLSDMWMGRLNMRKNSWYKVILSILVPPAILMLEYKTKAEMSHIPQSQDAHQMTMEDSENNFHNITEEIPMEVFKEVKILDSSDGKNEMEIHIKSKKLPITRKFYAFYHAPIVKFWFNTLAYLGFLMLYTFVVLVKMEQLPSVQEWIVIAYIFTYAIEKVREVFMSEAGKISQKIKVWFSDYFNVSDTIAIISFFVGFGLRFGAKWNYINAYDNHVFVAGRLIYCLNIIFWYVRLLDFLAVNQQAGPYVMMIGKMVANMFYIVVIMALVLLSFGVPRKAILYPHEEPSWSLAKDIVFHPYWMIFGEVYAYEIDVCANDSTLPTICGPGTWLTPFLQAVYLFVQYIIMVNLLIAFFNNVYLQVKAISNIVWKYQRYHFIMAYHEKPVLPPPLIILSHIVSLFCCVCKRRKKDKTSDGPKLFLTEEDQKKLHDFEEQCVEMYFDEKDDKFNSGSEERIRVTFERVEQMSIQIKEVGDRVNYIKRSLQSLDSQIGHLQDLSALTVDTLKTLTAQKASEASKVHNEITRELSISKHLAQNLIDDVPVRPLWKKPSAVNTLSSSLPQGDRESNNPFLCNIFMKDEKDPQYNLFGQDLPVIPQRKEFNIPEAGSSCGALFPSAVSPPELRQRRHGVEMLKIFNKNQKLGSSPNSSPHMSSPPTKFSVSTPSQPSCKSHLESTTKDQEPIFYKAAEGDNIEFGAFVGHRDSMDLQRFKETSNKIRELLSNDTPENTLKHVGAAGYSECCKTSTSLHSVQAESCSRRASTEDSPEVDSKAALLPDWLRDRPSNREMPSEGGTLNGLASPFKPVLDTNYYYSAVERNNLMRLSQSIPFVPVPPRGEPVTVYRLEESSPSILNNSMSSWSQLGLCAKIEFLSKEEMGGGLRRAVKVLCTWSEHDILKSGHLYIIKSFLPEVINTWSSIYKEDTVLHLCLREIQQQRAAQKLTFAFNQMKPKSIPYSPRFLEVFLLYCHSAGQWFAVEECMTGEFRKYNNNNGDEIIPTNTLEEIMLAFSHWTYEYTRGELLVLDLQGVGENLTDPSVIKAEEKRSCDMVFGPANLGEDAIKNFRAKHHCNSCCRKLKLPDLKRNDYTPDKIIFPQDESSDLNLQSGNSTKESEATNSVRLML

Structure (SMILES)	inhibition at 10 µM (HeLa)	inhibition at 10 µM (MCF7)	inhibition at 72 h, 10 µM [2]	inhibition at 72 h, 10 µM [3]	inhibition at 10 µM [4]	inhibition at 10 µM (Y79)	inhibition at 10 µM [5]	inhibition at 72 h, 10 µM [6]	Selectivity Index [7]	Selectivity Index [8]	Selectivity Index [9]	Selectivity Index [10]	Selectivity Index [11]	Selectivity Index [12]	Selectivity Index [13]	Selectivity Index [14]	Selectivity Index [15]	Selectivity Index [16]	Selectivity Index [17]	Selectivity Index [18]	also measured
COc1ccc2c(c1)CCN=C2c1sc2ccccc2c1Cl	> 40%	> 40%	> 40%	> 40%	> 40%	> 40%	> 40%	> 40%	20	20	20	20	20	20	20	20	20	20	20	20	IC50 [1]: 5 µM; Selectivity Index [19]: 20; Selectivity Index [20]: 20; Selectivity Index [21]: 20; inhibition at 10 µM [22]: 42%; inhibition at 5 µM [23]: 18%; Ratio [24]: 0.06; Ratio [25]: 0.035; IC50 [26]: 1.19 µM
Cc1c(Cc2ccc(Cl)c(Cl)c2)c(=O)oc2cc(O)ccc12	–	–	–	–	–	–	–	–	–	–	–	–	–	–	–	–	–	–	–	–	Activity (Cerebral cortex neuron): Active; Activity (Rattus norvegicus [27]): Active; fold change (FC) (Rattus norvegicus [28]): 2; Activity (Rattus norvegicus [29]): Active; Activity (Rattus norvegicus [30]): Active; Activity (Rattus norvegicus [31]): Active; Activity (Rattus norvegicus [32]): Active
COc1ccc(C(=O)c2sc3ccccc3c2Cl)cc1	> 40%	> 40%	> 40%	> 40%	> 40%	> 40%	> 40%	> 40%	20	20	20	20	20	20	20	20	20	20	20	20	Selectivity Index [19]: 20; Selectivity Index [20]: 20; Selectivity Index [21]: 20; Ratio [24]: 0.305; Ratio [25]: 0.063; IC50 [26]: 4 µM

Reference: ChEMBL document CHEMBL3714762, “Agents and methods for treating ischemic and other diseases” (2012)
